Target: P. falciparum apicoplast DNA polymerase (Pf-apPOL) (Plasmodium falciparum, UniProt Q8ILY1)
Assay: Fluorescence-based high-throughput DNA polymerase assay (molecular beacon), primary screen and dose-response;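 as to % inhibition ApPOL 90': test concentration in µM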;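 as to % inhibition apPOL 180': test concentration in µM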
Assay type: biochemical
Procedure, shortened: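 Single-point screening used 10 µM compound with 20 nM polymerase, 20 nM hairpin substrate and 6 µM dNTPs for 90 min at 25 °C. Confirmatory titrations (2.5–80 µM) followed fluorescence at three times, and IC50 was derived from a fit including a cooperativity term n.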

[1] = supplemental file 2, sheet IC50 nontoxic compounds; Pf-apPOL
[2] = 'DNA Pol'; screening value, unit not given; 90 min, 10 µM
[3] = primary screen hit value, DNA Pol (186 hits); 90 min, 10 µM

Sequence of P. falciparum apicoplast DNA polymerase (Pf-apPOL) (Q8ILY1 entry or part of it): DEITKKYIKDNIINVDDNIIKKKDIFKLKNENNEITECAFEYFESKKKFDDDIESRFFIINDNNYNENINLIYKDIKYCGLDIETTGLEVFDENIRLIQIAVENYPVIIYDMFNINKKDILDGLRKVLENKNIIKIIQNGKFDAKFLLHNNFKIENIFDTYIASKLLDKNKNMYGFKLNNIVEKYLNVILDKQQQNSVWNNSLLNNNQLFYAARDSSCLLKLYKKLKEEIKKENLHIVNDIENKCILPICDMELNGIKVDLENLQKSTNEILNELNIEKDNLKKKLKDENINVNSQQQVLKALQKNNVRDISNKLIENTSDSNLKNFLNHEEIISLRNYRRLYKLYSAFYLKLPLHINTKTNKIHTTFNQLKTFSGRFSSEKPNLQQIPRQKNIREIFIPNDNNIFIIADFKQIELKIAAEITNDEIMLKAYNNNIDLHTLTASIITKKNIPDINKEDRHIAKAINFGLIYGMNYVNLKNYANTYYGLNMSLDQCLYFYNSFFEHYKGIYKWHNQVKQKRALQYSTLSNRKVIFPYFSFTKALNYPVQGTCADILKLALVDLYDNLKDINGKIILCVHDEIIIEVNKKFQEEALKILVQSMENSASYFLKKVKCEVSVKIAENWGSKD

## COc1ccc(C=C2Oc3c(ccc4c3CN(Cc3ccco3)CO4)C2=O)c(OC)c1 [KU0199404]
DRC-1; concentration 2.5; 10'
  % inhibition Apo pol 10': 1.778%
DRC-1; concentration 2.5; 90'
  % inhibition Apol 90': 6.394%
DRC-1; concentration 2.5; 180'
  % inhibition apPOL 180': 14.4773%
DRC-1; concentration 5; 10'
  % inhibition Apo pol 10': 2.359%
DRC-1; concentration 5; 90'
  % inhibition Apol 90': 10.7843%
DRC-1; concentration 5; 180'
  % inhibition apPOL 180': 25.2477%
DRC-1; concentration 10; 10'
  % inhibition Apo pol 10': 17.8134%
DRC-1; concentration 10; 90'
  % inhibition Apol 90': 29.7292%
DRC-1; concentration 10; 180'
  % inhibition apPOL 180': 48.7066%
DRC-1; concentration 20; 10'
  % inhibition Apo pol 10': 37.7158%
DRC-1; concentration 20; 90'
  % inhibition Apol 90': 50.8732%
DRC-1; concentration 20; 180'
  % inhibition apPOL 180': 69.9557%
DRC-1; concentration 40; 10'
  % inhibition Apo pol 10': 58.5562%
DRC-1; concentration 40; 90'
  % inhibition Apol 90': 70.9348%
DRC-1; concentration 40; 180'
  % inhibition apPOL 180': 86.2262%
DRC-1; concentration 80 (unit not given); 10'
  % inhibition Apo pol 10': 73.935%
DRC-1; concentration 80; 90'
  % inhibition Apol 90': 78.9077%
DRC-1; concentration 80; 180'
  % inhibition apPOL 180': 90.2103%
DRC-2; 5'; concentration 10
  % inhibition Apo pol 5': 33%
DRC-2; 5'; concentration 80
  % inhibition Apo pol 5': 49%
DRC-2; 40'; concentration 10
  % inhibition Apol 40': 33%
DRC-2; 40'; concentration 20
  % inhibition Apol 40': 49%
DRC-2; concentration 2.5; 5'
  % inhibition Apo pol 5': 5%
DRC-2; concentration 2.5; 40'
  % inhibition Apol 40': 1.45%
DRC-2; concentration 2.5; 90'
  % inhibition ApPOL 90': -0.679%
DRC-2; concentration 2.5; 180'
  % inhibition apPOL 180': -6%
DRC-2; concentration 5; 5'
  % inhibition Apo pol 5': 12%
DRC-2; concentration 5; 40'
  % inhibition Apol 40': 3.41%
DRC-2; concentration 5; 90'
  % inhibition ApPOL 90': -6.4%
DRC-2; concentration 5; 180'
  % inhibition apPOL 180': -80%
DRC-2; concentration 10; 5'
  % inhibition Apo pol 5': 33%
DRC-2; concentration 10; 40'
  % inhibition Apol 40': 33%
DRC-2; concentration 10; 90'
  % inhibition ApPOL 90': 30%
DRC-2; concentration 10; 180'
  % inhibition apPOL 180': 17%
DRC-2; concentration 20; 5'
  % inhibition Apo pol 5': 46%
DRC-2; concentration 20; 40'
  % inhibition Apol 40': 49%
DRC-2; concentration 20; 90'
  % inhibition ApPOL 90': 45%
DRC-2; concentration 20; 180'
  % inhibition apPOL 180': 31%
DRC-2; concentration 40; 5'
  % inhibition Apo pol 5': 52%
DRC-2; concentration 40; 40'
  % inhibition Apol 40': 58%
DRC-2; concentration 40; 90'
  % inhibition ApPOL 90': 56%
DRC-2; concentration 40; 180'
  % inhibition apPOL 180': 47%
DRC-2; concentration 80; 5'
  % inhibition Apo pol 5': 49%
DRC-2; concentration 80; 40'
  % inhibition Apol 40': 51%
DRC-2; concentration 80; 90'
  % inhibition ApPOL 90': 48%
DRC-2; concentration 80; 180'
  % inhibition apPOL 180': 43%
Primary screen value of the 186 hits; unit not given; 90 min, 10 µM
  DNA Pol: 29
Primary screen value; head prints only 'DNA Pol'; 90 min, 10 µM
  DNA Pol: 29

## COc1ccc(C)cc1NC(=O)Cn1ccc2c(=O)[nH]ccc21 [Molecule 15]
[1]
  IC50: 7.23 µM

## O=C1c2ccccc2C(=O)N1Oc1ccc([N+](=O)[O-])c([N+](=O)[O-])c1 [Molecule 66]
[1]
  IC50: 37 µM

## Cc1ccc(NC(=O)Cn2ccc3c(=O)[nH]ccc32)cc1 [Molecule 50]
[1]
  IC50: 13.7 µM

## O=C(c1ccccc1)N1CCc2c(nc3cc(-c4ccccc4)[nH]n3c2=O)C1 [Molecule 30]
[1]
  IC50: 9.54 µM

## O=C1NN(c2ccc(Cl)c(Cl)c2)C(=O)/C1=C/c1ccc(-c2ccc3c(c2)C(=O)OC3)o1 [Molecule 90]
[1]
  IC50: 3.43 µM

## O=C(c1c[nH]c2ncccc12)N1CCCCCC1 [Molecule 51, O=C(c1c[nH]c2c1cccn2)N1CCCCCC1]
[2]
  DNA Pol: 25
DRC-1; 10'; concentration 2.5
  % inhibition Apo pol 10': 0.9621%
DRC-1; 10'; concentration 5
  % inhibition Apo pol 10': 3.05%
DRC-1; 10'; concentration 10
  % inhibition Apo pol 10': 7.159%
DRC-1; 10'; concentration 20
  % inhibition Apo pol 10': 44.6815%
DRC-1; 10'; concentration 40
  % inhibition Apo pol 10': 69.4342%
DRC-1; 10'; concentration 80
  % inhibition Apo pol 10': 66.9665%
DRC-1; 90'; concentration 2.5
  % inhibition Apol 90': 1.194%
DRC-1; 90'; concentration 5
  % inhibition Apol 90': 0.544%
DRC-1; 90'; concentration 10
  % inhibition Apol 90': 3.081%
DRC-1; 90'; concentration 20
  % inhibition Apol 90': 31.7125%
DRC-1; 90'; concentration 40
  % inhibition Apol 90': 60.4317%
DRC-1; 90'; concentration 80
  % inhibition Apol 90': 59.6767%
DRC-1; 180'; concentration 2.5
  % inhibition apPOL 180': -0.2836%
DRC-1; 180'; concentration 5
  % inhibition apPOL 180': -4.489%
DRC-1; 180'; concentration 10
  % inhibition apPOL 180': -1.621%
DRC-1; 180'; concentration 20
  % inhibition apPOL 180': 18.2058%
DRC-1; 180'; concentration 40
  % inhibition apPOL 180': 46.8298%
DRC-1; 180'; concentration 80
  % inhibition apPOL 180': 46.9776%
DRC-2, 5', concentration 2.5
  % inhibition Apo pol 5': 0.781%
DRC-2, 5', concentration 5
  % inhibition Apo pol 5': 2.7%
DRC-2, 5', concentration 10
  % inhibition Apo pol 5': 24%
DRC-2, 5', concentration 20
  % inhibition Apo pol 5': 38%
DRC-2, 5', concentration 40
  % inhibition Apo pol 5': 34%
DRC-2, 5', concentration 80
  % inhibition Apo pol 5': 36%
DRC-2, 40', concentration 2.5
  % inhibition Apol 40': 4%
DRC-2, 40', concentration 5
  % inhibition Apol 40': 4.4%
DRC-2, 40', concentration 10
  % inhibition Apol 40': 28%
DRC-2, 40', concentration 20
  % inhibition Apol 40': 47%
DRC-2, 40', concentration 40
  % inhibition Apol 40': 45%
DRC-2, 40', concentration 80
  % inhibition Apol 40': 61%
DRC-2, 90', concentration 2.5
  % inhibition ApPOL 90': 2.81%
DRC-2, 90', concentration 5
  % inhibition ApPOL 90': 3.55%
DRC-2, 90', concentration 10
  % inhibition ApPOL 90': 25%
DRC-2, 90', concentration 20
  % inhibition ApPOL 90': 46%
DRC-2, 90', concentration 40
  % inhibition ApPOL 90': 45%
DRC-2, 90', concentration 80
  % inhibition ApPOL 90': 68%
DRC-2, 180', concentration 2.5
  % inhibition apPOL 180': -1%
DRC-2, 180', concentration 5
  % inhibition apPOL 180': -0.742%
DRC-2, 180', concentration 10
  % inhibition apPOL 180': 17%
DRC-2, 180', concentration 20
  % inhibition apPOL 180': 37%
DRC-2, 180', concentration 40
  % inhibition apPOL 180': 35%
DRC-2, 180', concentration 80
  % inhibition apPOL 180': 72%
Conc 40 (unit not given); 40'; DRC-2
  % inhibition Apol 40': 45%
Conc 40 (unit not given); 90'; DRC-2
  % inhibition ApPOL 90': 45%
[3]
  DNA Pol: 25

## O=C(Cn1ccc2c(=O)[nH]ccc21)Nc1cc(F)ccc1F [Molecule 42]
[1]
  IC50: 12.7 µM

## O=C(O)CC1=NN(c2cccc([N+](=O)[O-])c2)C(=O)C1 [KU0100531]
[2]
  DNA Pol: 37
DRC-1; 10'; concentration 2.5
  % inhibition Apo pol 10': 32.2581%
DRC-1; 10'; concentration 5
  % inhibition Apo pol 10': 49.6373%
DRC-1; 10'; concentration 10
  % inhibition Apo pol 10': 61.4137%
DRC-1; 10'; concentration 20
  % inhibition Apo pol 10': 68.5645%
DRC-1; 10'; concentration 40
  % inhibition Apo pol 10': 76.8361%
DRC-1; 10'; concentration 80
  % inhibition Apo pol 10': 88.3009%
DRC-1; 90'; concentration 2.5
  % inhibition Apol 90': 15.7319%
DRC-1; 90'; concentration 5
  % inhibition Apol 90': 18.7201%
DRC-1; 90'; concentration 10
  % inhibition Apol 90': 28.2695%
DRC-1; 90'; concentration 20
  % inhibition Apol 90': 34.3533%
DRC-1; 90'; concentration 40
  % inhibition Apol 90': 46.1706%
DRC-1; 90'; concentration 80
  % inhibition Apol 90': 68.1347%
DRC-1; 180'; concentration 2.5
  % inhibition apPOL 180': 13.4028%
DRC-1; 180'; concentration 5
  % inhibition apPOL 180': 8.316%
DRC-1; 180'; concentration 10
  % inhibition apPOL 180': 15.9728%
DRC-1; 180'; concentration 20
  % inhibition apPOL 180': 20.4489%
DRC-1; 180'; concentration 40
  % inhibition apPOL 180': 28.0717%
DRC-1; 180'; concentration 80
  % inhibition apPOL 180': 50.5655%
DRC-2, 5', concentration 2.5
  % inhibition Apo pol 5': 25%
DRC-2, 5', concentration 5
  % inhibition Apo pol 5': 36%
DRC-2, 5', concentration 10
  % inhibition Apo pol 5': 45%
DRC-2, 5', concentration 20
  % inhibition Apo pol 5': 50%
DRC-2, 5', concentration 40
  % inhibition Apo pol 5': 58%
DRC-2, 5', concentration 80
  % inhibition Apo pol 5': 66%
DRC-2, 40', concentration 2.5
  % inhibition Apol 40': 12%
DRC-2, 40', concentration 5
  % inhibition Apol 40': 21%
DRC-2, 40', concentration 10
  % inhibition Apol 40': 32%
DRC-2, 40', concentration 20
  % inhibition Apol 40': 39%
DRC-2, 40', concentration 40
  % inhibition Apol 40': 54%
DRC-2, 40', concentration 80
  % inhibition Apol 40': 71%
DRC-2, 90', concentration 2.5
  % inhibition ApPOL 90': 6%
DRC-2, 90', concentration 5
  % inhibition ApPOL 90': 15%
DRC-2, 90', concentration 10
  % inhibition ApPOL 90': 24%
DRC-2, 90', concentration 20
  % inhibition ApPOL 90': 31%
DRC-2, 90', concentration 40
  % inhibition ApPOL 90': 48%
DRC-2, 90', concentration 80
  % inhibition ApPOL 90': 71%
DRC-2, 180', concentration 2.5
  % inhibition apPOL 180': 2%
DRC-2, 180', concentration 5
  % inhibition apPOL 180': 7.6%
DRC-2, 180', concentration 10
  % inhibition apPOL 180': 17%
DRC-2, 180', concentration 20
  % inhibition apPOL 180': 23%
DRC-2, 180', concentration 40
  % inhibition apPOL 180': 41%
DRC-2, 180', concentration 80
  % inhibition apPOL 180': 70%
Conc 80 (unit not given); 40'; DRC-2
  % inhibition Apol 40': 71%
Conc 80 (unit not given); 90'; DRC-2
  % inhibition ApPOL 90': 71%
[3]
  DNA Pol: 37
